In this test the test system is mice. In words: Neuropharmacological assay (SmartCube), behavioral signature of compound-treated mice. It counts as in vivo. As to conditions: i.p. 15 min before behavioral test, most efficacious dose(s) of 3 doses. Summed up:
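Read-out is an automated video-based behavioral signature, scored as per-class probabilities (e.g., anxiolytic, antidepressant) against reference compounds. Dosing was i.p. at three doses, 15 min pre-test, in NMP, polyethylene glycol and propylene glycol. Values shown are from the most efficacious dose(s).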

Regarding `c1ccc2c(c1)CCO[C@H]2[C@@H]1CCCCN1` [Compound I-72, (S)-2-((R)-isochroman-1-yl)piperidine], the “AD: ADHD (probability that behavioral signature matches class)” value (from here on “AD: ADHD”) is “+ (LOQ ≤ + <5%)”, the “AG: analgesic (probability that behavioral signature matches class)” value (“AG: analgesic” below) is “++ (5% ≤ ++ <25%)”, the “AX: anxiolytic (probability that behavioral signature matches class)” value (“AX: anxiolytic” below) was “++ (5% ≤ ++ <25%)” and the “CE: cognitive enhancer (probability that behavioral signature matches class)” value (“CE: cognitive enhancer” for short) is recorded as “+ (LOQ ≤ + <5%)”. The “DP: anti-depressant (probability that behavioral signature matches class)” value (from here on “DP: anti-depressant”) is on record as “+ (LOQ ≤ + <5%)”, the “HA: hallucinogen (probability that behavioral signature matches class)” value (shortened to “HA: hallucinogen”) is listed as “+ (LOQ ≤ + <5%)”, the “MS: mood stabilizer (probability that behavioral signature matches class)” value (“MS: mood stabilizer” for short) is listed as “+ (LOQ ≤ + <5%)” and the “PS: anti-psychotic (probability that behavioral signature matches class)” value (shortened to “PS: anti-psychotic”) is on record as “+ (LOQ ≤ + <5%)”. Besides, the “SD: sedative hypnotic (probability that behavioral signature matches class)” value (shortened to “SD: sedative hypnotic”) is “+ (LOQ ≤ + <5%)”, the “UN: uncharacterized CNS activity (probability that behavioral signature matches class)” value (from here on “UN: uncharacterized CNS activity”) was “+++ (25% ≤ +++ <50%)” and the “XG: anxiogenic (probability that behavioral signature matches class)” value (“XG: anxiogenic” below) is on record as “++ (5% ≤ ++ <25%)”.

With `Fc1ccc2c(c1)CCO[C@@H]2[C@@H]1CCCCN1` [Compound I-73, (S)-2-((S)-6-fluoroisochroman-1-yl)piperidine], the “AD: ADHD” value is listed as “+ (LOQ ≤ + <5%)”, the “AG: analgesic” value is recorded as “++ (5% ≤ ++ <25%)”, the “AX: anxiolytic” value is recorded as “++ (5% ≤ ++ <25%)” and the “CE: cognitive enhancer” value is given as “++ (5% ≤ ++ <25%)”. The “DP: anti-depressant” value is “++ (5% ≤ ++ <25%)”, the “HA: hallucinogen” value is given as “+ (LOQ ≤ + <5%)”, the “MS: mood stabilizer” value is “++ (5% ≤ ++ <25%)” and the “PS: anti-psychotic” value is reported as “+ (LOQ ≤ + <5%)”. The “SD: sedative hypnotic” value was “+ (LOQ ≤ + <5%)”, the “UN: uncharacterized CNS activity” value was “+++ (25% ≤ +++ <50%)” and the “XG: anxiogenic” value is “+ (LOQ ≤ + <5%)”.

Take `Fc1ccc2c(c1)CCO[C@H]2[C@@H]1CCCCN1` [Compound I-74, (S)-2-((R)-6-fluoroisochroman-1-yl)piperidine]: the “AD: ADHD” value is “+ (LOQ ≤ + <5%)”, the “AG: analgesic” value is “++ (5% ≤ ++ <25%)”, the “AX: anxiolytic” value is listed as “++ (5% ≤ ++ <25%)” and the “CE: cognitive enhancer” value is “++ (5% ≤ ++ <25%)”. Moreover, the “DP: anti-depressant” value is given as “++ (5% ≤ ++ <25%)”, the “HA: hallucinogen” value is “+ (LOQ ≤ + <5%)”, the “MS: mood stabilizer” value was “+ (LOQ ≤ + <5%)” and the “PS: anti-psychotic” value is recorded as “+++ (25% ≤ +++ <50%)”. For the same compound, the “SD: sedative hypnotic” value is recorded as “++ (5% ≤ ++ <25%)”, the “UN: uncharacterized CNS activity” value is “+ (LOQ ≤ + <5%)” and the “XG: anxiogenic” value is recorded as “+ (LOQ ≤ + <5%)”.

Turning to `c1ccc2c(c1)CCO[C@@H]2[C@@H]1COCCN1` [Compound I-75, (S)-3-((S)-isochroman-1-yl)morpholine], the “AD: ADHD” value is given as “+ (LOQ ≤ + <5%)”, the “AG: analgesic” value is recorded as “+ (LOQ ≤ + <5%)”, the “AX: anxiolytic” value is on record as “++ (5% ≤ ++ <25%)” and the “CE: cognitive enhancer” value is “++ (5% ≤ ++ <25%)”. The “DP: anti-depressant” value is reported as “+++ (25% ≤ +++ <50%)”, the “HA: hallucinogen” value was “+ (LOQ ≤ + <5%)”, the “MS: mood stabilizer” value is “++ (5% ≤ ++ <25%)” and the “PS: anti-psychotic” value was “++ (5% ≤ ++ <25%)”. In addition, the “SD: sedative hypnotic” value is recorded as “++ (5% ≤ ++ <25%)”, the “UN: uncharacterized CNS activity” value is on record as “+ (LOQ ≤ + <5%)” and the “XG: anxiogenic” value is listed as “+ (LOQ ≤ + <5%)”.

For the compound `c1ccc2c(c1)CCO[C@H]2[C@@H]1COCCN1` [Compound I-76, (S)-3-((R)-isochroman-1-yl)morpholine], the “AD: ADHD” value is recorded as “+ (LOQ ≤ + <5%)”, the “AG: analgesic” value is “++ (5% ≤ ++ <25%)”, the “AX: anxiolytic” value is on record as “++ (5% ≤ ++ <25%)” and the “CE: cognitive enhancer” value is on record as “+ (LOQ ≤ + <5%)”. In addition, the “DP: anti-depressant” value is listed as “++ (5% ≤ ++ <25%)”, the “HA: hallucinogen” value is “+ (LOQ ≤ + <5%)”, the “MS: mood stabilizer” value is on record as “+ (LOQ ≤ + <5%)” and the “PS: anti-psychotic” value is listed as “++ (5% ≤ ++ <25%)”. Besides, the “SD: sedative hypnotic” value is on record as “+ (LOQ ≤ + <5%)”, the “UN: uncharacterized CNS activity” value is listed as “+ (LOQ ≤ + <5%)” and the “XG: anxiogenic” value is “+ (LOQ ≤ + <5%)”.

On to `Fc1ccc2c(c1)CCO[C@@H]2[C@@H]1COCCN1` [Compound I-77, (S)-3-((S)-6-fluoroisochroman-1-yl)morpholine], for which the “AD: ADHD” value is given as “+ (LOQ ≤ + <5%)”, the “AG: analgesic” value is on record as “+ (LOQ ≤ + <5%)”, the “AX: anxiolytic” value was “++ (5% ≤ ++ <25%)” and the “CE: cognitive enhancer” value was “+ (LOQ ≤ + <5%)”. The “DP: anti-depressant” value is “+ (LOQ ≤ + <5%)”, the “HA: hallucinogen” value is “+ (LOQ ≤ + <5%)”, the “MS: mood stabilizer” value is “+ (LOQ ≤ + <5%)” and the “PS: anti-psychotic” value is listed as “+ (LOQ ≤ + <5%)”. In addition, the “SD: sedative hypnotic” value is “+ (LOQ ≤ + <5%)”, the “UN: uncharacterized CNS activity” value is listed as “+ (LOQ ≤ + <5%)” and the “XG: anxiogenic” value is “+ (LOQ ≤ + <5%)”.

For the compound `Fc1ccc2c(c1)CCO[C@H]2[C@@H]1COCCN1` [Compound I-78, (S)-3-((R)-6-fluoroisochroman-1-yl)morpholine], the “AD: ADHD” value is listed as “+ (LOQ ≤ + <5%)”, the “AG: analgesic” value is listed as “++ (5% ≤ ++ <25%)”, the “AX: anxiolytic” value is given as “+++ (25% ≤ +++ <50%)” and the “CE: cognitive enhancer” value is recorded as “++ (5% ≤ ++ <25%)”. In addition, the “DP: anti-depressant” value is on record as “++ (5% ≤ ++ <25%)”, the “HA: hallucinogen” value was “+ (LOQ ≤ + <5%)”, the “MS: mood stabilizer” value is “+ (LOQ ≤ + <5%)” and the “PS: anti-psychotic” value was “++ (5% ≤ ++ <25%)”. Further, the “SD: sedative hypnotic” value is listed as “+ (LOQ ≤ + <5%)”, the “UN: uncharacterized CNS activity” value is given as “+ (LOQ ≤ + <5%)” and the “XG: anxiogenic” value is on record as “+ (LOQ ≤ + <5%)”.

For `c1ccc2c(c1)CCO[C@@H]2[C@@H]1CCN1` [Compound I-79, (S)-2-((S)-isochroman-1-yl)azetidine], the “AD: ADHD” value is reported as “++ (5% ≤ ++ <25%)”, the “AG: analgesic” value is recorded as “++ (5% ≤ ++ <25%)”, the “AX: anxiolytic” value is recorded as “+++ (25% ≤ +++ <50%)” and the “CE: cognitive enhancer” value is recorded as “++ (5% ≤ ++ <25%)”. Also, the “DP: anti-depressant” value is on record as “++ (5% ≤ ++ <25%)”, the “HA: hallucinogen” value is “+ (LOQ ≤ + <5%)”, the “MS: mood stabilizer” value was “++ (5% ≤ ++ <25%)” and the “PS: anti-psychotic” value is given as “+++ (25% ≤ +++ <50%)”. The “SD: sedative hypnotic” value was “+ (LOQ ≤ + <5%)”, the “UN: uncharacterized CNS activity” value is “+ (LOQ ≤ + <5%)” and the “XG: anxiogenic” value is reported as “+ (LOQ ≤ + <5%)”.

`c1ccc2c(c1)CCO[C@H]2[C@@H]1CCN1` [Compound I-80, (S)-2-((R)-iso-chroman-1-yl)azetidine]: the “AD: ADHD” value is given as “+ (LOQ ≤ + <5%)”, the “AG: analgesic” value is given as “++ (5% ≤ ++ <25%)”, the “AX: anxiolytic” value was “++ (5% ≤ ++ <25%)” and the “CE: cognitive enhancer” value was “++ (5% ≤ ++ <25%)”. For the same compound, the “DP: anti-depressant” value is on record as “+++ (25% ≤ +++ <50%)”, the “HA: hallucinogen” value was “+ (LOQ ≤ + <5%)”, the “MS: mood stabilizer” value is reported as “++ (5% ≤ ++ <25%)” and the “PS: anti-psychotic” value is given as “++ (5% ≤ ++ <25%)”. The “SD: sedative hypnotic” value is recorded as “+ (LOQ ≤ + <5%)”, the “UN: uncharacterized CNS activity” value is listed as “+++ (25% ≤ +++ <50%)” and the “XG: anxiogenic” value was “+ (LOQ ≤ + <5%)”.

With `c1ccc2c(c1)CCO[C@@H]2[C@H]1CCN1` [Compound I-81, (R)-2-((S)-isochroman-1-yl)azetidine], the “AD: ADHD” value was “+ (LOQ ≤ + <5%)”, the “AG: analgesic” value is reported as “++ (5% ≤ ++ <25%)”, the “AX: anxiolytic” value is listed as “+++ (25% ≤ +++ <50%)” and the “CE: cognitive enhancer” value is “++ (5% ≤ ++ <25%)”. Further, the “DP: anti-depressant” value is reported as “++ (5% ≤ ++ <25%)”, the “HA: hallucinogen” value is given as “+ (LOQ ≤ + <5%)”, the “MS: mood stabilizer” value is listed as “+ (LOQ ≤ + <5%)” and the “PS: anti-psychotic” value was “++ (5% ≤ ++ <25%)”. Further, the “SD: sedative hypnotic” value was “+++ (25% ≤ +++ <50%)”, the “UN: uncharacterized CNS activity” value is “+ (LOQ ≤ + <5%)” and the “XG: anxiogenic” value is “+ (LOQ ≤ + <5%)”.
